Experimental data: publication PMC6274922, “Defined Small Molecules Produced by Himalayan Medicinal Plants Display Immunomodulatory Properties” (International Journal of Molecular Sciences, 2018)
≈ marks a conversion by molar mass, not a printed value.

Key:
[1] = tested on: DC2.4 murine dendritic cell line; test: Gene expression analysis by RT-qPCR in DC2.4 cells; format: cell-based, mouse; conditions: for modulation of gene expression, in words: DC2.4 cells, mRNA correlated with FACS RFI (Figure 3)
Experimental: The following day, cells were harvested and 20,000 live cells from each condition were sorted by FACS into RLT buffer and RNA extracted for mRNA analysis by RT-qPCR. The relative gene expression for each gene was calculated for each compound and compared to the media control. We then correlated gene expression with protein expression represented by the FACS RFI (Figure 3). […] The SUM of the changes for all genes and proteins relative to the media-only control is summarized in the bottom right corner of Figure 3 SUM.
DC2.4 cells were co-cultured overnight with test compounds as described above. The following day, cells were harvested and 20,000 live cells from each condition were sorted by FACS into RLT buffer and stored at −70 °C. On the day of extraction, frozen cell lysates were thawed quickly on ice and mRNA was extracted using the RNEasy micro kit (Qiagen, Chadstone Centre, VIC, Australia) according to the manufacturer’s instructions. cDNA was synthesized using oligo-dT and AMVRT (Promega, Sydney, Australia) according to the manufacturer’s instructions. Gene expression was measured using individual Taqman gene expression assays (Applied Biosystems, Foster City, CA, USA) and Platinum Taq polymerase (Life Technologies, Carlsbad, CA, USA) in a 15 μL volume reaction using a Rotorgene 3000 PCR machine (Corbett Research, Mortlake, Australia) with the following conditions: 2 min at 50 °C for calibration of fluorescence gain values, then denaturing at for 2 min at 95 °C, followed by 45 cycles of 5 s at 95 °C and 30 s at 60 °C. Gene expression was quantified relative to a standard curve generated from a titration of cloned cDNA and relative gene expression was calculated by dividing the expression value of the test sample by that of the cells grown in media only. All assays were conducted in triplicate.

[2] = tested on: DC2.4 murine dendritic cell line; format: cell-based; conditions: for Median Fluorescence Intensity (MFI) of surface MHC-I expression: representative FACS plots, DC2.4 cells, media only control MFI 732
[3] = Cytotoxicity by xCELLigence RTCA system; conditions: human
Experimental: (§1) The immortalized non-malignant human cholangiocyte cell line H69 is a SV40-transformed human bile duct epithelial cell line originally derived from a normal liver harvested for transplantation. […] Cytotoxicity screening of the test compounds against the H69 cell line was performed using an xCELLigence SP system (ACEA Biosciences Inc., San Diego, CA, USA) as described by us previously. All experiments were carried out as per the manufacturer’s instructions with 0.25–60 min read intervals using the real time cell assay (RTCA) software (ACEA Biosciences Inc., USA). All assays were conducted in triplicate. Inter-well spaces were filled with 100 µL of culture medium or PBS to prevent evaporation. The E-plates containing cells were seeded at 5000 cells/well and incubated overnight at 37 °C with 5% CO2. The cells were then treated with prepared concentrations (50, 100, 500 µg/mL) of the test compounds and the viability of the cells was monitored continually for 24 h.
(§2) We determined the IC50 values of test compounds based on the normalised cell index (nCI) for cells, as described previously. Briefly, the 24 h nCI relative to the negative DMSO treated controls (deemed 100%) on the y-axis was plotted against the log concentration value x-axis.

[4] = tested on: A431 epithelial cancer cell lines; parameters: method as in PMID 9584334; conditions: in vitro; cited from earlier work
HL60 = tested on: HL60; parameters: method as in PMID 9584334; conditions: in vitro; cited from earlier work
[5] = tested on: immortalized non-cancerous H69 human cholangiocyte cell line; test: Cytotoxicity by xCELLigence RTCA system
Experimental: as §1, §2

HT-29 cancer cell lines = tested on: HT-29 cancer cell lines; parameters: method as in PMID 29555944; conditions: cited from earlier work
lung carcinoma (A549) = tested on: lung carcinoma (A549); parameters: method as in PMID 29555944; conditions: cited from earlier work
[6] = tested on: multi-drug resistant Plasmodium falciparum; conditions: cited from earlier work
[7] = tested on: DC2.4 murine dendritic cell line; test: Combined FACS + PCR score of immunomodulation in DC2.4 cells; format: cell-based, mouse
Experimental: The following day, cells were harvested and 20,000 live cells from each condition were sorted by FACS into RLT buffer and RNA extracted for mRNA analysis by RT-qPCR. The relative gene expression for each gene was calculated for each compound and compared to the media control.
DC2.4 cells (4000 cells in exponential phase/200 µL) were cultured in 96-well flat bottom plates overnight with a titration of the test compound in media (stock concentration of 1 mg/mL and further titrated in tissue culture media at 4 mid-log dilutions starting at 100 µg/mL) or media only (modified DMEM, 50 µM 2-mercaptoethanol and 216 mg/L L-glutamine, 10% heat-inactivated FCS). Each compound was tested twice, in replicate assays. […] The RFI (relative fluorescence intensity) for each parameter was calculated by dividing the median fluorescence intensity (MFI) of the test sample by that of the control (media-only) samples.
DC2.4 cells were co-cultured overnight with test compounds as described above. […] Gene expression was quantified relative to a standard curve generated from a titration of cloned cDNA and relative gene expression was calculated by dividing the expression value of the test sample by that of the cells grown in media only. […]

## COc1c2ccoc2cc2oc(=O)ccc12 [Compound 13, bergapten]
[1]
  modulation of gene expression, in words: suppression of expression of some genes, and notably MHC-I at both the gene and protein level
[2]
  Median Fluorescence Intensity (MFI) of surface MHC-I expression: 304
[3]
  IC50 at 24 h: 126 µg/mL (≈ 585 µM)
[4]
  anti-proliferative activity, in words: anti-proliferative activity
HL60
  anti-proliferative activity, in words: anti-proliferative activity

## CC#CC#C/C=C1\C=CC2(CCCO2)O1 (centres unmarked) [Compound 5, (E)-spiroether]
[5]; H69 cells, from 6 h with 100 µg/mL
  cell death: 96.5%
[3]
  IC50 at 24 h: < 1 µg/mL

## O=c1cc(-c2ccc(O)c(O)c2)oc2cc(O)cc(O)c12 [Compound 6, luteolin]
[3]
  IC50 at 24 h: 30 µg/mL (≈ 105 µM)

## COc1cc2c(cc1O)[C@@H]1Cc3ccc(OC)c(O)c3CN1CC2 [Compound 10, scoulerine]
[1]
  modulation of gene expression, in words: strong up-regulator of several important genes including MHC-I, CD80 and CD86
HT-29 cancer cell lines
  cytotoxic activity, in words: significant cytotoxic activity
Lung carcinoma (A549)
  cytotoxic activity, in words: significant cytotoxic activity
[2]
  Median Fluorescence Intensity (MFI) of surface MHC-I expression: 1582
[6]
  antimalarial activity, in words: potent antimalarial drug lead compound

## protopine [Compound 8]
[1]; sum of the relative expression of the 7 genes
  PCR SUM: 10.01
[2]; sum of the RFI of the 7 surface markers
  FACS SUM: 9.95
[5]
  IC50 (cytotoxicity): 9 µg/mL
[5]; H69 cells, at 24 h
  cell toxicity: 68%
[5]; H69 cells, from 6 h
  cell toxicity: 23%
[7]; average of FACS and PCR values
  Ave.: 1.43
[7]; sum of all FACS RFI and PCR relative expression values
  SUM FACS + PCR: 19.96
